US6008219A, “Bicyclic amine derivatives and their use as anti-psychotic agents” (SmithKline Beech p.l.c., priority 1995, dated 1999)
Counter-ions that a name gives are not always drawn.

biological target: human D3 receptor (Homo sapiens, UniProt P35462); test: Cytosensor Microphysiometer functional activity, antagonist mode against quinpirole (hD3-CHO cells); type: cell-based; details: against 30 nM quinpirole, acidification rate, read-out: pKb values at the human D3 receptor (tested as antagonists) (converted)
Sequence (P35462 whole entry): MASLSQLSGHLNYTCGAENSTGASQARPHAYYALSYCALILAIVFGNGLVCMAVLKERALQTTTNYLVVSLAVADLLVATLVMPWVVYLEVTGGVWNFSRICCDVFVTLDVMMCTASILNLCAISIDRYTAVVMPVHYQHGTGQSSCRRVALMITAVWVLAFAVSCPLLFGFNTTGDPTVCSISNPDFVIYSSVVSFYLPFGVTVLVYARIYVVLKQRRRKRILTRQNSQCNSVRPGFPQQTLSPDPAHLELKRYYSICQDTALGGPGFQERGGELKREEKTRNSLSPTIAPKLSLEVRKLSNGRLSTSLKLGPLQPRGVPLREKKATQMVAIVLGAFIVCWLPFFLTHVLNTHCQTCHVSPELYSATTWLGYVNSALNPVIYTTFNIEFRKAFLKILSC

Compound	Kb [nM]
CCCN(CCCCNC(=O)c1ccc(-c2ccccc2)cc1)C1Cc2ccccc2C1 [Example 2p, N-(4-(4-Phenylbenzoylamino)butyl)-2-propylaminoindane, hydrochloride]	0.0316 to 10
CCCN(CCCCNC(=O)c1ccc(-c2ccccc2)cc1)C1CCc2cc(OC(F)(F)F)ccc2C1 (racemic) [Example 2x, N-(4-(4-Phenylbenzoylamino)butyl)-2-(R,S)-propylamino-6-trifluoromethoxy-1,2,3,4-tetrahydronaphthalene, hydrochloride]	0.0316 to 10
CCCN(CCCCNC(=O)c1ccc(-c2ccccc2)cc1)C1CCc2c(Cl)cccc2C1 (racemic) [Example 2k, 5-Chloro-N-(4-(4-phenylbenzoylamino)butyl)-2-(R,S)-propylamino-1,2,3,4-tetrahydronaphthalene, hydrochloride]	0.0316 to 10
CCCN(CCCCNC(=O)c1ccc(-c2ccccc2)cc1)C1CCc2c(cccc2OS(C)(=O)=O)C1 (racemic) [Example 17, 5-Methanesulfonyloxy-N-(4-(4-phenylbenzoylamino)butyl)-2-(R,S)-propylamino-1,2,3,4-tetrahydronaphthalene, hydrochloride]	0.0316 to 10
CCCN(CCCCNC(=O)c1ccc(-c2ccccc2)cc1)C1CCc2ccccc2C1 (racemic) [Example 10f, N-(4-(4-phenylbenzoylamino)butyl)-2-(R,S)-propylamino-1,2,3,4-tetrahydronaphthalene, hydrochloride]	0.0316 to 10
CCCN(CCCCNC(=O)c1ccc(-c2ccccc2)cc1)C1CCc2ccc(Cl)cc2C1 (racemic) [Example 2m, 7-Chloro-N-(4-(4-phenylbenzoylamino)butyl)-2-(R,S)-propylamino-1,2,3,4-tetrahydronaphthalene, hydrochloride]	0.0316 to 10
CCCN(CCCCNC(=O)c1ccc(-c2ccccc2)cc1)C1CCc2c(cccc2OS(=O)(=O)C(F)(F)F)C1 (racemic) [Example 15, N-(4-(4-Phenylbenzoylamino)butyl)-2-(R,S)-propylamino-5-trifluoromethanesulfonyloxy-1,2,3,4-tetrahydronaphthalene, hydrochloride]	0.0316 to 10
CCCN(CCCCNC(=O)c1ccc(-c2ccccc2)cc1)C1CCc2ccc(CC(=O)OCC)cc2C1 (racemic) [Example 3dd, N-(4-(4-Phenylbenzoylamino)butyl)-7-(R,S)-propylamino-5,6,7,8-tetrahydronaphthalene-2-acetic acid, ethyl ester, hydrochloride]	0.0316 to 10
CCCN(CCCCNC(=O)c1ccc(-c2ccccc2)cc1)C1CCc2cc(CC(=O)OCC)ccc2C1 (racemic) [Example 3cc, N-(4-(4-Phenylbenzoylamino)butyl)-6-(R,S)-propylamino-5,6,7,8-tetrahydronaphthalene-2-acetic acid, ethyl ester, hydrochloride]	0.0316 to 10
CCCN(CCCCNC(=O)c1ccc(-c2ccccc2)cc1)C1CCc2c(CC(=O)OCC)cccc2C1 (racemic) [Example 3bb, N-(4-(4-Phenylbenzoylamino)butyl)-6-(R,S)-propylamino-5,6,7,8-tetrahydronaphthalene-1-acetic acid, ethyl ester, hydrochloride]	0.0316 to 10
